Experimental data reported in patent US20230146455A1, “TREATMENT OF INFLAMMATORY DISEASES WITH PEPTIDES AND PHARMACEUTICAL COMPOSITIONS” (Yuyu Pharma, Inc., priority 2020, published 2023).
Where “and” joins values, the source holds several entries; their conditions need not be identical. Identical values can stand only once. Where a SMILES comes first, the peptide text is derived from it. [ ]: non-standard residue; d: D form. Hyp = O=C(O)[C@@H]1C[C@@H](O)CN1

Test system: IL-6
Assay: Example 9 Luminex, LPS hPBMCs: IL-6
Type: cell-based, human
Details: Bead IL-6
Protocol: Treatment Human PBMCs were pretreated with YY-101, YDE-011 and YDE-043 or reference compound; Xiidra® at various concentration (ranging from 1 nM to 100 uM) for 2 h before stimulation. An equal volume of 0.5% DMSO was used as a vehicle control. Then, the cells were treated with LPS at 5 ug/ml. The supernatants from treated cells were harvested at 24 h and placed in a 96 well for Luminex cytokine & chemokine profiling using a Luminex 200 multiplex assay (Luminex; R&D system, USA).
The main study arm with triplicate wells per group in a 24-well plate: • 1. Blank • 2. PBMC: 0.5% DMSO • 3. PBMC+LPS (5 ug/ml) • 4. PBMC+YY-101 100 uM • 5. PBMC+YY-101 10 uM • 6. PBMC+YY-101 1 uM • 7. PBMC+YY-101 0.1 uM • 8. PBMC+YY-101 0.01 uM • 9. PBMC+LPS (5 ug/ml)+Xiidra®100 uM • 10. PBMC+LPS (5 ug/ml)+Xiidra® 10 uM • 11. PBMC+LPS (5 ug/ml)+Xiidra® 1 uM • 12. PBMC+LPS (5 ug/ml)+Xiidra®0.1 uM • 13. PBMC+LPS (5 ug/ml)+Xiidra®0.01 uM • 14. PBMC+LPS (5 ug/ml)+Xiidra®0.001 uM • 15. PBMC+LPS (5 ug/ml)+YY-101 100 uM • 16. PBMC+LPS (5 ug/ml)+YY-101 10 uM • 17. PBMC+LPS (5 ug/ml)+YY-101 1 uM • 18. PBMC+LPS (5 ug/ml)+YY-101 0.1 uM • 19. PBMC+LPS (5 ug/ml)+YY-101 0.01 uM • 20. PBMC+LPS (5 ug/ml)+YY-101 0.001 uM • 21. PBMC+LPS (5 ug/ml)+YDE-011 100 uM • 22. PBMC+LPS (5 ug/ml)+YDE-011 10 uM • 23. PBMC+LPS (5 ug/ml)+YDE-011 1 uM • 24. PBMC+LPS (5 ug/ml)+YDE-011 0.1 uM • 25. PBMC+LPS (5 ug/ml)+YDE-011 0.01 uM • 26. PBMC+LPS (5 ug/ml)+YDE-011 0.001 uM • 27. PBMC+LPS (5 ug/ml)+YDE-043 100 uM • 28. PBMC+LPS (5 ug/ml)+YDE-043 10 uM • 29. PBMC+LPS (5 ug/ml)+YDE-043 1 uM • 30. PBMC+LPS (5 ug/ml)+YDE-043 0.1 uM • 31. PBMC+LPS (5 ug/ml)+YDE-043 0.01 uM • 32. PBMC+LPS (5 ug/ml)+YDE-043 0.001 uM
Multiplex assay was used to measure 30 cytokines and chemokines. The 1:2, 1:10 and 1:200 diluted cell supernatant and serial dilution of the standard were dispensed into a 96 well plate at 50 ul/well. Then, the pre-mixed cocktail of antibody-coated magnetic beads was dispensed at 50 ul/well and incubated at room temperature for 2 h in a horizontal orbital microplate shaker at 800±500 rpm. The beads were washed using a magnetic device to prevent loss. The biotin-antibody was dispensed in 50 ul of each well and incubated at room temperature for 1 h in a shaker at 800±500 rpm. After washing, streptavidin-PE was added at 50 ul/well and incubated at room temperature for 30 min in a shaker under the same conditions. Finally, after washing, wash buffer (100 ul/well) was added to the plate and incubated in a shaker for 2 min. The Luminex™ 200 setting were set according to the manufacturer's protocol. The data was calculated with a standard five-parameter logistic nonlinear regression analysis of the data (xPonent software 4.2, USA). The levels of cytokine/chemokine are normalized to the live cell counts (1×10^5 cells/mL) and presented as concentrations per mL (pg/mL or ng/mL).

[1] = PBMC + LPS(5 ug/ml), 0.001 uM, Mean
[2] = PBMC + LPS(5 ug/ml), 0.001 uM, single replicates
[3] = PBMC + LPS(5 ug/ml), 0.01 uM, Mean
[4] = PBMC + LPS(5 ug/ml), 0.01 uM, single replicates
[5] = PBMC + LPS(5 ug/ml), 0.1 uM, Mean
[6] = PBMC + LPS(5 ug/ml), 0.1 uM, single replicates
[7] = PBMC + LPS(5 ug/ml), 1 uM, Mean
[8] = PBMC + LPS(5 ug/ml), 1 uM, single replicates
[9] = PBMC + LPS(5 ug/ml), 10 uM, Mean
[10] = PBMC + LPS(5 ug/ml), 10 uM, single replicates
[11] = PBMC + LPS(5 ug/ml), 100 uM, Mean
[12] = PBMC + LPS(5 ug/ml), 100 uM, single replicates
[13] = PBMC without LPS, 0.01 uM, Mean
[14] = PBMC without LPS, 0.01 uM, single replicates
[15] = PBMC without LPS, 0.1 uM, single replicates
[16] = PBMC without LPS, 1 uM, single replicates

## CC(C)C[C@H](NC(=O)CNC(=O)[C@H](CC(=O)O)NC(=O)[C@H](CCC(N)=O)NC(=O)CNC(=O)[C@@H]1C[C@@H](O)CN1)C(=O)N[C@@H](C)C(=O)NCC(=O)N1CCC[C@H]1C(=O)N[C@@H](CCCCN)C(=O)O [YY-101] (H-[Hyp]GQDGLAGPK-OH; N-terminus and C-terminus assumed)
[1]
  Concentration: 12498.5 pg/mL
  MFI: 355.4
  conc/live cell: 1952.7 pg/10^5
[2]
  Concentration: 13037.8 pg/mL and 12646.1 pg/mL and 11811.7 pg/mL
  MFI: 371.3 and 359.8 and 335.3
  conc/live cell: 2287.3 pg/10^5 and 1781.1 pg/10^5 and 1789.6 pg/10^5
[3]
  Concentration: 13304.7 pg/mL
  MFI: 379.1
  conc/live cell: 2159.4 pg/10^5
[4]
  Concentration: 13276.3 pg/mL and 13531.9 pg/mL and 13106.0 pg/mL
  MFI: 378.3 and 385.8 and 373.3
  conc/live cell: 2074.4 pg/10^5 and 2255.3 pg/10^5 and 2148.5 pg/10^5
[5]
  Concentration: 12816.4 pg/mL
  MFI: 364.8
  conc/live cell: 2203.2 pg/10^5
[6]
  Concentration: 12441.7 pg/mL and 13157.1 pg/mL and 12850.5 pg/mL
  MFI: 353.8 and 374.8 and 365.8
  conc/live cell: 2006.7 pg/10^5 and 2530.2 pg/10^5 and 2072.7 pg/10^5
[7]
  Concentration: 13020.8 pg/mL
  MFI: 370.8
  conc/live cell: 2001.1 pg/10^5
[8]
  Concentration: 13242.2 pg/mL and 12867.5 pg/mL and 12952.6 pg/mL
  MFI: 377.3 and 366.3 and 368.8
  conc/live cell: 2101.9 pg/10^5 and 1812.3 pg/10^5 and 2089.1 pg/10^5
[9]
  Concentration: 14020.8 pg/mL
  MFI: 400.1
  conc/live cell: 2132.1 pg/10^5
[10]
  Concentration: 13975.0 pg/mL and 15049.6 pg/mL and 13037.8 pg/mL
  MFI: 398.8 and 430.3 and 371.3
  conc/live cell: 2329.2 pg/10^5 and 2351.5 pg/10^5 and 1715.5 pg/10^5
[11]
  Concentration: 15533.5 pg/mL
  MFI: 444.4
  conc/live cell: 2685.2 pg/10^5
[12]
  Concentration: 16142.7 pg/mL and 15459.3 pg/mL and 14998.4 pg/mL
  MFI: 462.3 and 442.3 and 428.8
  conc/live cell: 2562.3 pg/10^5 and 2493.4 pg/10^5 and 2999.7 pg/10^5
[13]
  MFI: 3.3
  conc/live cell: 0.0 pg/10^5
[14]
  MFI: 4.3 and 2.3
  conc/live cell: 0.0 pg/10^5
PBMC without LPS, 0.1 uM, Mean
  MFI: 1.3
  conc/live cell: 0.0 pg/10^5
[15]
  MFI: 1.3
  conc/live cell: 0.0 pg/10^5
PBMC without LPS, 1 uM, Mean
  MFI: 1.8
  conc/live cell: 0.0 pg/10^5
[16]
  MFI: 2.3 and 1.3
  conc/live cell: 0.0 pg/10^5
PBMC without LPS, 10 uM, Mean
  Concentration: 880.7 pg/mL
  MFI: 15.3
  conc/live cell: 68.8 pg/10^5
PBMC without LPS, 10 uM, single replicates
  Concentration: 880.7 pg/mL
